The molecules below were run against T1, serotonin 5-HT6 receptor subtype (Homo sapiens, UniProt P50406) (assay: 5-HT6 binding affinity ([3H]-LSD SPA binding)). Conditions: CHO-Dukx-A2 cells expressing 5-HT6 receptor (clone 50-7); 3 nM [3H]-LSD; PVT WGA SPA beads; Ki by Cheng-Prusoff; read-out: 5-HT6 binding Ki.
T1 construct: host or cells: CHO-Dukx-A2 cells, clone 50-7
T1 sequence (P50406 whole entry): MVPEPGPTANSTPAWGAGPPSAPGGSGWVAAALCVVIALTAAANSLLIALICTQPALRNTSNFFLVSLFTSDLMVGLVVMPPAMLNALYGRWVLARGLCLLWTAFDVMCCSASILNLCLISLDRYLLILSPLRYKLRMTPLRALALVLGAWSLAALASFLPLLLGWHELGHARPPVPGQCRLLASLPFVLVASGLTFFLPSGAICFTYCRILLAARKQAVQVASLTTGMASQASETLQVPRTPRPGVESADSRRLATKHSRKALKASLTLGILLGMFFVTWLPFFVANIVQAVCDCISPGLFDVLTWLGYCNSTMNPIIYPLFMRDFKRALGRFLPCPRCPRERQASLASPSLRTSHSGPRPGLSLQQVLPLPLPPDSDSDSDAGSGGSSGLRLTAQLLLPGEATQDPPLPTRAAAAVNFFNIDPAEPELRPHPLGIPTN

Q: For `Cc1nc2c(N3CCNCC3)cccc2n1S(=O)(=O)c1ccccc1` [Example 5, 2-methyl-1-(phenylsulfonyl)-4-piperazin-1-yl-1H-benzimidazole], which Ki is on record?
A: 0.53 nM

Same assay, conditions: read-out: 5-HT6 binding Ki

Q: `Cc1nc2c(N3CCNCC3)cccc2n1S(=O)(=O)c1ccccc1OC(F)(F)F` [Example 46, 2-methyl-4-piperazin-1-yl-1-{[2-(trifluoromethoxy)phenyl]sulfonyl}-1H-benzimidazole] was tested. Which Ki did it give?
A: 1.74 nM

Q: With `Cc1nc2c(N3C[C@@H](C)N[C@@H](C)C3)cccc2n1S(=O)(=O)c1ccccc1Cl` [Example 98, 1-[(2-chlorophenyl)sulfonyl]-4-[(3R,5S)-3,5-dimethylpiperazin-1-yl]-2-methyl-1H-benzimidazole] as the molecule, how does the Ki read?
A: 3.5 nM

Q: `CCC1CN(c2cccc3c2ncn3S(=O)(=O)c2ccccc2)CCN1` (stereo not shown) [Example 119, 4-(3-ethylpiperazin-1-yl)-1-(phenylsulfonyl)-1H-benzimidazole] was tested. Which Ki did it give?
A: 0.484 nM

Q: How did the Ki turn out when `O=S(=O)(c1cccc(F)c1)n1cnc2c(N3CCNCC3)cccc21` [Example 22, 1-[(3-fluorophenyl)sulfonyl]-4-piperazin-1-yl-1H-benzimidazole] was run?
A: 1.5 nM

Q: `CC(C)C1CN(c2cccc3c2ncn3S(=O)(=O)c2ccccc2Cl)CCN1` (stereo not shown) [Example 122, 1-[(2-chlorophenyl)sulfonyl]-4-(3-isopropylpiperazin-1-yl)-1H-benzimidazole] was tested. Which Ki did it give?
A: 1.08 nM

Q: With `O=S(=O)(c1cccc2ccccc12)n1cnc2c(N3CCNCC3)cccc21` [Example 2, 1-(naphthalen-1-ylsulfonyl)-4-(piperazin-1-yl)-1H-benzo[d]imidazole] as the molecule, how does the Ki read?
A: 0.165 nM

Q: For `Cc1nc2c(N3CCNCC3)cccc2n1S(=O)(=O)c1ccccc1C(F)(F)F` [Example 48, 2-methyl-4-piperazin-1-yl-1-{[2-(trifluoromethyl)phenyl]sulfonyl}-1H-benzimidazole], which Ki is on record?
A: 2.94 nM

Q: For `CC(C)c1nc2c(N3CCNCC3)cccc2n1S(=O)(=O)c1ccccc1Cl` [Example 59, 1-[(2-chlorophenyl)sulfonyl]-4-(1-methylethyl)-4-piperazin-1-yl-1H-benzimidazole], which Ki is on record?
A: 0.463 nM

Q: With `O=S(=O)(c1cc(F)ccc1F)n1cnc2c(N3CCNCC3)cccc21` [Example 84, 1-[(2,5-difluorophenyl)sulfonyl]-4-piperazin-1-yl-1H-benzimidazole] as the molecule, how does the Ki read?
A: 0.855 nM

Q: `CN1CCN(c2cccc3c2ncn3S(=O)(=O)c2cccc3ccccc23)CC1` [Example 1, 4-(4-methylpiperazin-1-yl)-1-(naphthalen-1-ylsulfonyl)-1H-benzo[d]imidazole] was tested. Which Ki did it give?
A: 0.064 nM

Q: `O=S(=O)(c1ccc(OC(F)(F)F)cc1)n1cnc2c(N3CCNCC3)cccc21` [Example 25, 4-piperazin-1-yl-1-{[4-(trifluoromethoxy)phenyl]sulfonyl}-1H-benzimidazole] was tested. Which Ki did it give?
A: 89 nM

Q: Which Ki does the source give for `O=S(=O)(c1ccccc1OC(F)(F)F)n1cnc2c(N3CCNCC3)cccc21` [Example 33, 4-piperazin-1-yl-1-{[2-(trifluoromethoxy)phenyl]sulfonyl}-1H-benzimidazole] here?
A: 0.72 nM

Q: How did the Ki turn out when `Cc1c(Cl)cccc1S(=O)(=O)n1cnc2c(N3CCN[C@H](C)C3)cccc21` [Example 77, 1-[(3-chloro-2-methylphenyl)sulfonyl]-4-[(3R)-3-methylpiperazin-1-yl]-1H-benzimidazole] was run?
A: 1.2 nM

Q: How did the Ki turn out when `Cc1nc2c(N3CCNCC3)cccc2n1S(=O)(=O)c1ccc(F)cc1` [Example 38, 1-[(4-fluorophenyl)sulfonyl]-2-methyl-4-piperazin-1-yl-1H-benzimidazole] was run?
A: 10.5 nM

Q: For `Cc1ccccc1S(=O)(=O)n1c(C)nc2c(N3CCNCC3)cccc21` [Example 47, 2-methyl-1-[(2-methylphenyl)sulfonyl]-4-piperazin-1-yl-1H-benzimidazole], which Ki is on record?
A: 2.26 nM

Q: For `Cc1nc2c(N3CCNCC3)cccc2n1S(=O)(=O)c1cccc(Cl)c1` [Example 16, 1-[(3-chlorophenyl)sulfonyl]-2-methyl-4-piperazin-1-yl-1H-benzimidazole], which Ki is on record?
A: 0.99 nM

Q: How did the Ki turn out when `Cc1ccc(S(=O)(=O)n2c(C)nc3c(N4CCNCC4)cccc32)cc1` [Example 31, 2-methyl-1-[(4-methylphenyl)sulfonyl]-4-piperazin-1-yl-1H-benzimidazole] was run?
A: 0.467 nM

Q: How did the Ki turn out when `Cc1ccccc1S(=O)(=O)n1cnc2c(N3CCNCC3)cccc21` [Example 39, 1-[(2-methylphenyl)sulfonyl]-4-piperazin-1-yl-1H-benzimidazole] was run?
A: 1.15 nM

Q: How did the Ki turn out when `Cc1nc2c(N3CCNCC3)cccc2n1S(=O)(=O)c1ccccc1F` [Example 32, 1-[(2-fluorophenyl)sulfonyl]-2-methyl-4-piperazin-1-yl-1H-benzimidazole] was run?
A: 2.5 nM

Q: How did the Ki turn out when `O=S(=O)(c1ccccc1Cl)n1cnc2c(N3C[C@@H]4C[C@H]3CN4)cccc21` [Example 106, 1-[(2-chlorophenyl)sulfonyl]-4-[(1S,4S)-2,5-diazabicyclo[2.2.1]hept-2-yl]-1H-benzimidazole] was run?
A: 5.3 nM

Q: `CC1CN(c2cccc3c2ncn3S(=O)(=O)c2ccccc2)CCN1` (stereo not shown) [Example 128, 4-(3-methylpiperazin-1-yl)-1-(phenylsulfonyl)-1H-benzimidazole] was tested. Which Ki did it give?
A: 0.931 nM

Q: For `Cc1nc2c(N3CCN[C@@H](C)C3)cccc2n1S(=O)(=O)c1cccc2c(Cl)cccc12` [Example 126, 1-[(5-chloro-1-naphthyl)sulfonyl]-2-methyl-4-[(3S)-3-methylpiperazin-1-yl]-1H-benzimidazole], which Ki is on record?
A: 1.05 nM

Q: How did the Ki turn out when `COc1ccccc1S(=O)(=O)n1c(C)nc2c(N3CCNCC3)cccc21` [Example 52, 1-[(2-methoxyphenyl)sulfonyl]-2-methyl-4-piperazin-1-yl-1H-benzimidazole] was run?
A: 1.89 nM

Q: With `O=S(=O)(c1ccc2ccccc2c1)n1cnc2c(N3CCNCC3)cccc21` [Example 23, 1-(2-naphthylsulfonyl)-4-piperazin-1-yl-1H-benzimidazole] as the molecule, how does the Ki read?
A: 10.6 nM

Q: Which Ki does the source give for `COc1cc(C)ccc1S(=O)(=O)n1cnc2c(N3CCNCC3)cccc21` [Example 69, 1-[(2-methoxy-4-methylphenyl)sulfonyl]-4-piperazin-1-yl-1H-benzimidazole] here?
A: 2.15 nM

Q: `Cc1c(Cl)cccc1S(=O)(=O)n1cnc2c(N3CCN[C@@H](C)C3)cccc21` [Example 82, 1-[(3-chloro-2-methylphenyl)sulfonyl]-4-[(3S)-3-methylpiperazin-1-yl]-1H-benzimidazole] was tested. Which Ki did it give?
A: 0.21 nM

Q: For `COc1ccccc1S(=O)(=O)n1cnc2c(N3CCNC(C)C3)cccc21` (stereo not shown) [Example 56, 1-[(2-methoxyphenyl)sulfonyl]-4-(3-methylpiperazin-1-yl)-1H-benzimidazole], which Ki is on record?
A: 2.35 nM

Q: `O=S(=O)(c1cccc(Cl)c1)n1cnc2c(N3CCNCC3)cccc21` [Example 19, 1-[(3-chlorophenyl)sulfonyl]-4-piperazin-1-yl-1H-benzimidazole] was tested. Which Ki did it give?
A: 4.3 nM

Q: For `CC1CN(c2cccc3c2ncn3S(=O)(=O)c2ccccc2Cl)CCN1` (stereo not shown) [Example 53, 1-[(2-chlorophenyl)sulfonyl]-4-(3-methylpiperazin-1-yl)-1H-benzimidazole], which Ki is on record?
A: 1.34 nM

Q: `O=S(=O)(c1cccc(F)c1)n1cnc2c(N3C[C@@H]4C[C@H]3CN4)cccc21` [Example 107, 4-[(1S,4S)-2,5-diazabicyclo[2.2.1]hept-2-yl]-1-[(3-fluorophenyl)sulfonyl]-1H-benzimidazole] was tested. Which Ki did it give?
A: 22.1 nM

Q: `Cc1c(Cl)cccc1S(=O)(=O)n1cnc2c(N3CCNC(C)C3)cccc21` (stereo not shown) [Example 58, 1-[(3-chloro-2-methylphenyl)sulfonyl]-4-(3-methylpiperazin-1-yl)-1H-benzimidazole] was tested. Which Ki did it give?
A: 1.73 nM

Q: Which Ki does the source give for `COc1cccc(S(=O)(=O)n2cnc3c(N4CCNCC4)cccc32)c1` [Example 34, 1-[(3-methoxyphenyl)sulfonyl]-4-piperazin-1-yl-1H-benzimidazole] here?
A: 1.2 nM

Q: For `Cc1nc2c(N3CCNC(C)C3)cccc2n1S(=O)(=O)c1ccccc1` (stereo in doubt) [Example 116, 2-methyl-4-[(3S)-3-methylpiperazin-1-yl]-1-(phenylsulfonyl)-1H-benzimidazole], which Ki is on record?
A: 0.951 nM

Q: With `Cc1nc2c(N3CCNCC3)cccc2n1S(=O)(=O)c1ccc(OC(F)(F)F)cc1` [Example 30, 2-methyl-4-piperazin-1-yl-1-{[4-(trifluoromethoxy)phenyl]sulfonyl}-1H-benzimidazole] as the molecule, how does the Ki read?
A: 15.8 nM

Q: `COc1ccc(Br)cc1S(=O)(=O)n1cnc2c(N3CCNCC3)cccc21` [Example 66, 1-[(5-bromo-2-methoxyphenyl)sulfonyl]-4-piperazin-1-yl-1H-benzimidazole] was tested. Which Ki did it give?
A: 4.93 nM

Q: With `Cc1c(Cl)cccc1S(=O)(=O)n1c(C)nc2c(N3C[C@@H]4C[C@H]3CN4)cccc21` [Example 113, 1-[(3-chloro-2-methylphenyl)sulfonyl]-4-[(1S,4S)-2,5-diazabicyclo[2.2.1]hept-2-yl]-2-methyl-1H-benzimidazole] as the molecule, how does the Ki read?
A: 14.1 nM

Q: With `Cc1c(Cl)cccc1S(=O)(=O)n1c(C)nc2c(N3C[C@@H](C)N[C@@H](C)C3)cccc21` [Example 100, 1-[(3-chloro-2-methylphenyl)sulfonyl]-4-[(3R,5S)-3,5-dimethylpiperazin-1-yl]-2-methyl-1H-benzimidazole] as the molecule, how does the Ki read?
A: 2.28 nM

Q: For `Cc1nc2c(N3CCNCC3)cccc2n1S(=O)(=O)c1cccc(OC(F)(F)F)c1` [Example 14, 2-methyl-4-piperazin-1-yl-1-{[3-(trifluoromethoxy)phenyl]sulfonyl}-1H-benzimidazole], which Ki is on record?
A: 2.3 nM

Q: `O=S(=O)(c1cccc(C(F)(F)F)c1)n1cnc2c(N3CCNCC3)cccc21` [Example 42, 4-piperazin-1-yl-1-{[3-(trifluoromethyl)phenyl]sulfonyl}-1H-benzimidazole] was tested. Which Ki did it give?
A: 1.13 nM

Q: With `Cc1c(F)cccc1S(=O)(=O)n1cnc2c(N3CCNCC3)cccc21` [Example 87, 1-[(3-fluoro-2-methylphenyl)sulfonyl]-4-piperazin-1-yl-1H-benzimidazole] as the molecule, how does the Ki read?
A: 0.402 nM

Q: With `Cc1c(Cl)cccc1S(=O)(=O)n1c(C)nc2c(N3CCNC(C)C3)cccc21` (stereo not shown) [Example 95, 1-[(3-chloro-2-methylphenyl)sulfonyl]-2-methyl-4-(3-methylpiperazin-1-yl)-1H-benzimidazole] as the molecule, how does the Ki read?
A: 0.394 nM

Q: How did the Ki turn out when `O=S(=O)(c1cccc2ccccc12)n1cnc2c(N3C[C@@H]4C[C@H]3CN4)cccc21` [Example 105, 4-[(1S,4S)-2,5-diazabicyclo[2.2.1]hept-2-yl]-1-(naphthalen-1-ylsulfonyl)-1H-benzimidazole] was run?
A: 7.55 nM

From patent US8063053B2, “1-(arylsulfonyl)-4-(piperazin-1-yl)-1H-benzimidazoles as 5-hydroxytryptamine-6 ligands” (Wyeth LLC, priority 2008, dated 2011)
